Here are results for one compound from patent US12324568B2, “Mouthwash to deliver dyes for dental imaging” (BOARD OF SUPERVISORS OF LOUISIANA STATE UNIVERSITY AND …, priority 2020, dated 2025).

In one test the test system is rat molars. Description: ICG-assisted NIR dental imaging with in vivo mouthwash in living rats. Conditions: rat model. On the set-up: species or system Sprague Dawley rats. The procedure: Self-breed Sprague Dawley rats, including eight postnatal day 31 (P31) and two P21 rats for erupted molars and sixteen P14 rats for unerupted molars, were utilized. To simulate the mouthwash with living rats, 10 μL ICG solution (1 mg/ml) was pipetted into the mouth of two P31 rats in vivo, and the rats were euthanized after 2 minutes. The other two P21 went through the same in vivo mouthwash procedure and euthanized after 1 minute. In addition, the mandibles were dissected from another two P31 rats directly after euthanasia, then washed with 10 μL ICG (1 mg/ml) solution ex vivo for 10 minutes. For the subcutaneous injection, every two P31 rats were euthanized at each time points 10 minutes and 24 hours, for the ICG injection on the back (5 mg/kg body weight). For the unerupted molars, two rats were sacrificed 1 minute after in vivo mouthwash, and the same for the erupted molars. […]
The imaging system is depicted in FIG. 1(A). A 785 nm laser source shined to the mandibles with fiber and filters, a NIR camera received the videos, and videos were recorded by computer. […]
Meanwhile, endoscopic imaging provided clearer morphologies of the first and second molars than wide-field imaging. […] As described in previous work,^29, 30 the intensity-mean difference Dmean_diff (IMD) was used as the image contrast for the quantitative evaluation of the target and background. […]

In test [1] the test system is rat molars (erupted P31, unerupted P14). Conditions: rat model, previous work, cited from earlier work.
Test [2] shares this test system. Description: ICG-assisted NIR dental imaging after subcutaneous injection in rat model. In kind it is in vivo, Sprague Dawley rats. The procedure: Self-breed Sprague Dawley rats, including eight postnatal day 31 (P31) and two P21 rats for erupted molars and sixteen P14 rats for unerupted molars, were utilized. To simulate the mouthwash with living rats, 10 μL ICG solution (1 mg/ml) was pipetted into the mouth of two P31 rats in vivo, and the rats were euthanized after 2 minutes. The other two P21 went through the same in vivo mouthwash procedure and euthanized after 1 minute. In addition, the mandibles were dissected from another two P31 rats directly after euthanasia, then washed with 10 μL ICG (1 mg/ml) solution ex vivo for 10 minutes. For the subcutaneous injection, every two P31 rats were euthanized at each time points 10 minutes and 24 hours, for the ICG injection on the back (5 mg/kg body weight). For the unerupted molars, two rats were sacrificed 1 minute after in vivo mouthwash, and the same for the erupted molars. To study concentration effect on imaging, 0.1, 0.5, 1, and 5 mg/kg of ICG were injected into eight P14 rats (two rats for each dosage, and euthanized for each concentration 4 hours after injection). For P14 rats to study imaging windows, two rats were euthanized at 10 minutes, 4 hours and 48 hours for posting ICG injection (5 mg/kg) respectively.
The imaging system is depicted in FIG. 1(A). A 785 nm laser source shined to the mandibles with fiber and filters, a NIR camera received the videos, and videos were recorded by computer. The mandibles were then extracted and imaged using ICG-assisted endoscopic NIR dental imaging, as described in previous publications.^29-31 In the endoscopic imaging, an output fiber was connected to the endoscope with a camera.^30 All experiments were approved by the Institutional Animal Care and Use Committee (IACUC) of Louisiana State University (Protocol #16-117) and followed the ethical guidelines of animal care.
Meanwhile, endoscopic imaging provided clearer morphologies of the first and second molars than wide-field imaging. The lingual and occlusal cusps of the molars could be easily distinguished, especially for the mouthwash treatment (FIG. 1(B)). As described in previous work,^29, 30 the intensity-mean difference Dmean_diff (IMD) was used as the image contrast for the quantitative evaluation of the target and background. To further reveal the efficiency of the mouthwash and local injection, a sampling line (yellow lines in FIG. 1) covering both molar regions and the surrounding tissues was used to calculate the image contrast of the molar and surrounding tissues.

Structures are written as SMILES. Where two headings read alike, the source gives them in different places.

Take `CC1(C)C(/C=C/C=C/C=C/C=C2\N(CCCCS(=O)(=O)O)c3ccc4ccccc4c3C2(C)C)=[N+](CCCCS(=O)(=O)[O-])c2ccc3ccccc3c21` [ICG, indocyanine green]: the “time to achieve the same image contrast” value in the test with rat molars was in the range of 1 to 2 min. Moreover, the imaging window in test [1] (erupted molars) was 4 h; in test [1] (unerupted molar) it was “about 96 hours”. Also, the “visibility of dental structures” value is on record as “no dental structures could be observed” in test [2] (erupted molars (P31 rat), 24 hours after ICG injection); “clearly observable” in test [2] (erupted molars (P31 rat), subcutaneous injection, imaging window 10 minutes); “could still be observed” in test [2] (unerupted molars (P14 rats), imaging window 48 hours). Besides, in test [2] (subcutaneous injection, P14 rats (FIG. 9)), the “minimal dye dosage to achieve recognizable anatomical imaging” value is 0.1 mg/kg (body weight).
